Measured values taken from ChEMBL document CHEMBL5316329, “Structure-Based Optimization of 2,4,5-Trisubstituted Pyrimidines as Potent HIV-1 Non-Nucleoside Reverse Transcriptase Inhibitors: Exploiting the Tolerant Regions of the Non-Nucleoside Reverse Transcriptase Inhibitors' Binding Pocket” (J Med Chem, 2023).

Columns and labels:
[1] = test system: Human immunodeficiency virus 1; assay: Antiviral activity against HIV-1 harboring Y188L mutant infected in human MT4 cells assessed as virus-induced cytopathicity treated for 5 days by MTT assay; format: functional, organism-based; settings: Human immunodeficiency virus 1, MT4, 120 h; read-out: EC50
[2] = molecular target: Cytochrome P450 2D6 (Homo sapiens, UniProt P10635); assay: Inhibition of CYP2D6 (unknown origin); format: ADME
[3] = test system: Human immunodeficiency virus 1; assay: Antiviral activity against HIV-1 harboring K103N mutant infected in human MT4 cells assessed as virus-induced cytopathicity treated for 5 days by MTT assay; format: functional, organism-based; settings: Human immunodeficiency virus 1, MT4, 120 h; read-out: EC50
[4] = test system: Human immunodeficiency virus 1; assay: Antiviral activity against wild-type HIV-1 IIIB infected in human MT4 cells assessed as virus-induced cytopathicity treated for 5 days by MTT assay; format: functional, organism-based; settings: Human immunodeficiency virus 1, IIIB, MT4, 120 h
[5] = Selectivity index, ratio of CC50 for human MT4 cells to EC50 for NNRTI-resistant HIV-1 RES056 infected in human MT4 cells; format: toxicity, cell-based; settings: read-out: Selectivity Index
[6] = test system: Human immunodeficiency virus 1; assay: Antiviral activity against HIV-1 harboring Y181C mutant infected in human MT4 cells assessed as virus-induced cytopathicity treated for 5 days by MTT assay; format: functional, organism-based; settings: Human immunodeficiency virus 1, MT4, 120 h
[7] = test system: Human immunodeficiency virus 1; assay: Antiviral activity against HIV-1 F227L/V106A mutant infected in human MT4 cells assessed as virus-induced cytopathicity treated for 5 days by MTT assay; format: functional, organism-based; settings: Human immunodeficiency virus 1, MT4, 120 h; read-out: EC50
[8] = test system: Human immunodeficiency virus 1; assay: Antiviral activity against HIV-1 E138K mutant infected in human MT4 cells assessed as virus-induced cytopathicity treated for 5 days by MTT assay; format: functional, organism-based; settings: Human immunodeficiency virus 1, MT4, 120 h; read-out: EC50
[9] = Cytotoxicity against human MT4 cells assessed as reduction in cell viability treated for 5 days by MTT assay; format: toxicity, cell-based; settings: time 5 day
[10] = molecular target: Cytochrome P450 2C19 (Homo sapiens, UniProt P33261); assay: Inhibition of CYP2C19 (unknown origin); format: ADME
[11] = molecular target: Cytochrome P450 2C9 (Homo sapiens, UniProt P11712); assay: Inhibition of CYP2C9 (unknown origin); format: ADME
[12] = test system: Human immunodeficiency virus 1; assay: Antiviral activity against NNRTI-resistant HIV-1 RES056 infected in human MT4 cells assessed as virus-induced cytopathicity treated for 5 days by MTT assay; format: functional, organism-based; settings: Human immunodeficiency virus 1, RES056, MT4, 120 h
[13] = Selectivity index, ratio of CC50 for human MT4 cells to EC50 for wild-type HIV-1 IIIB infected in human MT4 cells; format: toxicity, cell-based; settings: read-out: Selectivity Index
[14] = molecular target: Cytochrome P450 3A4 (Homo sapiens, UniProt P08684); assay: Inhibition of CYP3A4 (unknown origin) using midazolam as substrate; format: ADME
[15] = test system: Human immunodeficiency virus 1; assay: Antiviral activity against HIV-1 harboring L100I mutant infected in human MT4 cells assessed as virus-induced cytopathicity treated for 5 days by MTT assay; format: functional, organism-based; settings: Human immunodeficiency virus 1, MT4, 120 h
[16] = molecular target: T1, Cytochrome P450 1A2 (Homo sapiens, UniProt P05177); assay: Inhibition of CYP1A2 (unknown origin); format: ADME
T1 sequence (P05177 whole entry): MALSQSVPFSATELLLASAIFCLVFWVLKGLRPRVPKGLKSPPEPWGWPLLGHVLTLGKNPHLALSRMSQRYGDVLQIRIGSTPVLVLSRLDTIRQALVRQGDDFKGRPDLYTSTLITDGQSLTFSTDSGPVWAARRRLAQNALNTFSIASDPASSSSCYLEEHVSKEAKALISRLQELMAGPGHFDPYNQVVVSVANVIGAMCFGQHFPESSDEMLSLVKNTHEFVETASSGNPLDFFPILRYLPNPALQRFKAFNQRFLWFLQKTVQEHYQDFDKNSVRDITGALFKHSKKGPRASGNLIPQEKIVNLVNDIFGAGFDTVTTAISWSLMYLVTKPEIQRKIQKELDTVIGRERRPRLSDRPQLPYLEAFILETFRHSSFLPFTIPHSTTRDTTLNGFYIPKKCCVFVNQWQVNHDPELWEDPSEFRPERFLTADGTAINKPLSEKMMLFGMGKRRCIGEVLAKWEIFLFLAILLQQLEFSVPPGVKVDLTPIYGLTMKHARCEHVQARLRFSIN

[17] = molecular target: Human immunodeficiency virus type 1 reverse transcriptase (Human immunodeficiency virus 1, UniProt Q72547); assay: Inhibition of wild-type HIV-1 reverse transcriptase assessed as inhibition of biotin-dUTP incorporation

Chain of Cytochrome P450 3A4 (P08684 whole entry): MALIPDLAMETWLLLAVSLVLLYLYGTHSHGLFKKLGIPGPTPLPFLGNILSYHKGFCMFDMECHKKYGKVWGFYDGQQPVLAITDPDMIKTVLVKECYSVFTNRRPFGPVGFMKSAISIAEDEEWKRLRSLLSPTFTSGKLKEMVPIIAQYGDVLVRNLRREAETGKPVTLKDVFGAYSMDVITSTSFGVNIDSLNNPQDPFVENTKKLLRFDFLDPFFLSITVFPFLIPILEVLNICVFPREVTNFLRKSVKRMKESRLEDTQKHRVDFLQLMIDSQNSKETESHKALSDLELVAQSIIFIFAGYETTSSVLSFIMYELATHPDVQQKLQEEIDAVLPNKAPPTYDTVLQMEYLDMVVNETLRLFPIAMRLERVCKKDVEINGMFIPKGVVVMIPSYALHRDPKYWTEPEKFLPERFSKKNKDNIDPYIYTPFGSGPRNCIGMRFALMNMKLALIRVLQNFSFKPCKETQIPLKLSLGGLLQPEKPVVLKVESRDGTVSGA
Chain of Cytochrome P450 2D6 (P10635 whole entry): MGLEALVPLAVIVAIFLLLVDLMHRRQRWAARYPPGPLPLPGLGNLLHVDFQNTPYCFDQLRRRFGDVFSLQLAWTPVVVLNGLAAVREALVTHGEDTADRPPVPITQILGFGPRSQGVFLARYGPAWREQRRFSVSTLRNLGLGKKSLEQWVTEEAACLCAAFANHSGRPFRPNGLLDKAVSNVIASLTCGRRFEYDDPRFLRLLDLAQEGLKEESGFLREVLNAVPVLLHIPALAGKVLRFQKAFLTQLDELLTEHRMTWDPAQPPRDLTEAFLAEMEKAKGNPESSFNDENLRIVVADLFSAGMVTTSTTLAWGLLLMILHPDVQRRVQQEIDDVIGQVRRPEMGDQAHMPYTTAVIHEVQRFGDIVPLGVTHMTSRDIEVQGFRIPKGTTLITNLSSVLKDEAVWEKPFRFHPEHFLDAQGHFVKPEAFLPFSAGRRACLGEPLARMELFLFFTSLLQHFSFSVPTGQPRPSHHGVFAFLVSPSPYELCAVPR
Chain of Cytochrome P450 2C19 (P33261 whole entry): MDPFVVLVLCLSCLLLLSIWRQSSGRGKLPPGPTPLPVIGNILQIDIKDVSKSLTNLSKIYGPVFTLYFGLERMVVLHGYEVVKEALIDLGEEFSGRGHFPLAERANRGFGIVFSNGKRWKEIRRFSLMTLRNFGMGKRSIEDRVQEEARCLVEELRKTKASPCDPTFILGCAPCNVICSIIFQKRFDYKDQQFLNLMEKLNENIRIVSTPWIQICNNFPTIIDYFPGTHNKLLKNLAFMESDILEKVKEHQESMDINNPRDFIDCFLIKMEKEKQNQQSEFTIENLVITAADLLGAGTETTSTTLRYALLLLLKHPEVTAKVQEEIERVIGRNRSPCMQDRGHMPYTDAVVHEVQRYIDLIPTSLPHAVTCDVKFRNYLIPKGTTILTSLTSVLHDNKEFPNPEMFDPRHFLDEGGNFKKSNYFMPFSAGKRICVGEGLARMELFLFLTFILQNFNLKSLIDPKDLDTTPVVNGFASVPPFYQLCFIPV
Chain of Cytochrome P450 2C9 (P11712 whole entry): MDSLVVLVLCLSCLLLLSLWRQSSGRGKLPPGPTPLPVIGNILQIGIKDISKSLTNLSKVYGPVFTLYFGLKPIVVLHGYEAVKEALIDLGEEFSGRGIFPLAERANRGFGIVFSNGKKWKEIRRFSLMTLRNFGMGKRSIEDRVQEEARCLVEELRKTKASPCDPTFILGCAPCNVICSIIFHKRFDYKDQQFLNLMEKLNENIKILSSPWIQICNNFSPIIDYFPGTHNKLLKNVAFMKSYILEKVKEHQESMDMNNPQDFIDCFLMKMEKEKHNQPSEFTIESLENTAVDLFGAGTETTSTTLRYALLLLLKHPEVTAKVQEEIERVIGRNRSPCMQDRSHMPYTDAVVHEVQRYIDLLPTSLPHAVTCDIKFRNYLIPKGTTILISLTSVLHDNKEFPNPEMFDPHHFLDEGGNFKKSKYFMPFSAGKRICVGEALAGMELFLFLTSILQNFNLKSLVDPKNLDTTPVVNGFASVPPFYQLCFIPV

Row | SMILES | EC50 [1] [nM] | IC50 [2] [nM] | EC50 [3] [nM] | EC50 [4] [nM] | selectivity ratio [5] | EC50 ([6]; read-out: EC50) [nM] | EC50 [7] [nM] | EC50 [8] [nM] | CC50 at 120 h [9] [nM] | IC50 [10] [nM] | IC50 [11] [nM] | EC50 [12] [nM] | selectivity ratio [13] | IC50 [14] [nM] | EC50 ([15]; read-out: EC50) [nM] | IC50 [16] [nM] | IC50 [17] [nM] | EC50 ([6]; read-out: pEC50 (converted)) [nM] | EC50 ([15]; read-out: pEC50 (converted)) [nM]
1 | Cc1cc(/C=C/C#N)cc(C)c1Cc1nc(NC2CCN(Cc3ccc(S(C)(=O)=O)cc3)CC2)ncc1-c1cncnc1 | 22.1 | 25800 | 3.6 | 3.65 | 207 | 5.45 | 9.14 | 5.95 | 2900 | > 50000 | 9580 | 14 | 796 | 6540 | 3.14 | > 50000 | 104 | – | –
2 | Cc1cc(/C=C/C#N)cc(C)c1Oc1nc(NC2CCN(Cc3ccc(C(N)=O)cc3)CC2)ncc1-c1ccc2c(c1)OCO2 | 58.1 | – | 5.64 | 4.17 | 139 | 9.42 | 46.9 | 19.4 | 5320 | – | – | 38.3 | 1280 | – | 8.21 | – | 110 | – | –
3 | Cc1cc(/C=C/C#N)cc(C)c1Oc1nc(NC2CCN(Cc3ccc(S(N)(=O)=O)cc3)CC2)ncc1-c1cccc(N)c1 | 46.5 | – | 6.11 | 6.16 | 269 | 103 | 11.4 | 11.2 | 6940 | – | – | 25.8 | 1130 | – | 7.05 | – | 134 | – | –
4 | Cc1cc(/C=C/C#N)cc(C)c1Oc1nc(NC2CCN(Cc3ccc(S(N)(=O)=O)cc3)CC2)ncc1-c1ccc2c(c1)OCO2 | 47.8 | – | 6.3 | 5.48 | 136 | 10.7 | 35.7 | 40.5 | 6400 | – | – | 47 | 1170 | – | 10.6 | – | 122 | – | –
5 | Cc1cc(/C=C/C#N)cc(C)c1Oc1nc(NC2CCN(Cc3ccc(S(N)(=O)=O)cc3)CC2)ncc1-c1ccc(N)cc1 | 24.9 | – | 3.85 | 3.64 | 185 | 5.37 | 9.02 | 8.93 | 3810 | – | – | 23.4 | 1050 | – | 3.23 | – | 97 | – | –
6 | CC(=O)c1ccc(-c2cnc(NC3CCN(Cc4ccc(S(N)(=O)=O)cc4)CC3)nc2Oc2c(C)cc(/C=C/C#N)cc2C)cc1 | 28.5 | – | 5.18 | 5.34 | 198 | 10.2 | 22.6 | 12 | 8090 | – | – | 40.7 | 1520 | – | 10.8 | – | 130 | – | –
7 | Cc1cc(/C=C/C#N)cc(C)c1Oc1nc(NC2CCN(Cc3ccc(S(C)(=O)=O)cc3)CC2)ncc1-c1ccc(N)cc1 | 33.2 | – | 4.92 | 4.46 | 198 | 8.09 | 7.8 | 7.47 | 6740 | – | – | 34.1 | 1510 | – | 4.68 | – | 159 | – | –
8 | Cc1cc(/C=C/C#N)cc(C)c1Oc1nc(NC2CCN(Cc3ccc(C(N)=O)cc3)CC2)ncc1-c1cccc(N)c1 | 51 | – | 5.62 | 5.66 | 373 | 10.1 | 16.6 | 9.11 | 8370 | – | – | 22.4 | 1480 | – | 11 | – | 138 | – | –
9 | Cc1cc(/C=C/C#N)cc(C)c1Oc1nc(NC2CCN(Cc3ccc(S(N)(=O)=O)cc3)CC2)ncc1-c1ccc(O)cc1 | 31.3 | – | 4.13 | 3.83 | 170 | 7.77 | 12.7 | 7.65 | 4440 | – | – | 26.1 | 1160 | – | 3.68 | – | 91 | – | –
10 | Cc1cc(/C=C/C#N)cc(C)c1Cc1nc(NC2CCN(Cc3ccc(S(N)(=O)=O)cc3)CC2)ncc1-c1cncnc1 | 41.9 | – | 5.02 | 5.4 | 299 | 8.21 | 15.3 | 13.4 | 11300 | – | – | 37.8 | 2090 | – | 4.52 | – | 117 | – | –
11 | Cc1cc(/C=C/C#N)cc(C)c1Oc1nc(NC2CCN(Cc3ccc(C(N)=O)cc3)CC2)ncc1-c1cccc(O)c1 | 39.3 | – | 5.31 | 4.62 | 1050 | 9.7 | 13.1 | 21.1 | 36900 | – | – | 35.2 | 8000 | – | 11.6 | – | 88 | – | –
12 | Cc1cc(/C=C/C#N)cc(C)c1Oc1nc(NC2CCN(Cc3ccc(C(N)=O)cc3)CC2)ncc1-c1ccc(N)cc1 | 22.8 | – | 3.53 | 3.41 | 207 | 4.81 | 9.18 | 5.05 | 3910 | – | – | 18.9 | 1140 | – | 3.31 | – | 108 | – | –
13 | Cc1cc(/C=C/C#N)cc(C)c1Oc1nc(NC2CCN(Cc3ccc(S(N)(=O)=O)cc3)CC2)ncc1-c1cccc(O)c1 | 33 | – | 5.61 | 6.32 | 215 | 16 | 25 | 18.5 | 7850 | – | – | 36.1 | 1240 | – | 11.6 | – | 115 | – | –
14 | Cc1cc(C#N)cc(C)c1Oc1nc(Nc2ccc(C#N)cc2)nc(N)c1Br [ETRAVIRINE] | – | – | – | – | – | 16.6 | – | – | > 4590 | – | – | 52.2 | – | – | 11.7 | – | – | 17 | 11.7
